{
  "source": "ChEMBL document CHEMBL1123015",
  "about": "“Thiol-containing androgens as suicide substrates of aromatase” (J Med Chem, 1985)",
  "molecular_target": "T1, Aromatase (Homo sapiens, UniProt P11511)",
  "T1 sequence (P11511 whole entry)": "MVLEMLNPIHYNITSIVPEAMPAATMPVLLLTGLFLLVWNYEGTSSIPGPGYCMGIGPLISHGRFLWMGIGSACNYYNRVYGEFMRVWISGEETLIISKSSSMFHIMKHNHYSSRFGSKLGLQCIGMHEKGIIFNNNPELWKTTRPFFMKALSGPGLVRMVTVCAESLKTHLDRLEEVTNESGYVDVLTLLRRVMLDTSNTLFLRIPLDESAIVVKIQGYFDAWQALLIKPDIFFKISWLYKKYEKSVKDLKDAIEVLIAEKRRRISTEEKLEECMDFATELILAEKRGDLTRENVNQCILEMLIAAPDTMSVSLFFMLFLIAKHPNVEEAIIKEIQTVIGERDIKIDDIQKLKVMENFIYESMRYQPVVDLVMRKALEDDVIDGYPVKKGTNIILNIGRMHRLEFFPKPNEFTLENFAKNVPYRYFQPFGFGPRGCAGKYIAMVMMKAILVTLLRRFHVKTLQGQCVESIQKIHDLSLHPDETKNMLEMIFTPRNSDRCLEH",
  "assay": "Percentage aromatase activity remaining in human placental microsomes with NADPH",
  "format": "functional, Placenta",
  "data": [
    {"smiles": "C[C@]12CC[C@H]3[C@@H](CCC4=CC(=O)CC[C@@]43CS)[C@@H]1CCC2=O", "values": [
      {"measurement": "Activity", "result": 94, "unit": "%"}
    ]}
  ]
}
